The subject of data set [1] is Pseudomonas aeruginosa PAO1 strain H103. Type of data set: cell-based. As to conditions: laboratory strain P. aeruginosa PAO1. The method, boiled down:
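Modified broth microdilution MIC in Mueller Hinton medium, peptides diluted in 0.01% acetic acid/0.2% BSA, polypropylene plates. Inoculum 2-7×10^5 CFU/ml, overnight at 37 °C; MIC is the lowest concentration with no visible growth.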

Data set [2] concerns Enterococcus faecalis ATCC29212. It is filed as cell-based. Conditions: ATCC29212. The method, boiled down: (§1)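 No-growth endpoint after overnight culture at 37° C in Mueller Hinton broth. Inoculum: 2-7×10^5 CFU/ml. Peptide diluent: 0.01% acetic acid, 0.2% BSA.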
Data set [3] relates to Staphylococcus aureus ATCC25923. It is filed as cell-based. Conditions: ATCC25923. The method, boiled down: as §1
For data set [4], the system named is clinical isolates of MRSA. It is filed as cell-based, Staphylococcus aureus. The method, boiled down:
(§2)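 Modified broth microdilution in Mueller Hinton medium, peptides serially diluted in 0.01% acetic acid with 0.2% BSA in polypropylene plates. Inoculum 2-7×10^5 CFU/ml, overnight incubation at 37° C; MIC taken as lowest concentration with no visible growth.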

The next data set relates to ESBL E. cloacae. Type of data set: cell-based, Enterobacter cloacae. In a few lines:
as §2

In data set [5] the test system is Liverpool Epidemic Strains. Type of data set: cell-based, Pseudomonas aeruginosa. In a few lines: as §2
Data set [6] concerns multidrug resistant Brazilian clinical isolates of P. aeruginosa. It is filed as cell-based, Pseudomonas aeruginosa. The method, boiled down: as §2
Data set [7] relates to MCP-1 release by human PBMC. The data set can be described thus: Chemokine induction in PBMC (capture ELISA). As to conditions: background (204) subtracted. It is filed as cell-based. In a few lines:
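Heparinized blood from healthy volunteers; Ficoll-isolated human PBMC (7.5×10^5) treated with peptides at 20 or 100 μg/ml for 24 hours at 37° C, 5% CO2. Cell-free supernatants assayed for MCP-1 by capture ELISA.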
(In general: An ELISA detects its analyte on a solid surface through an enzyme-linked reagent.)

Data set [8] relates to MCP-3 release by human PBMC. The data set can be described thus: Chemokine induction in PBMC (capture ELISA). Type of data set: cell-based. Conditions: background (6) subtracted. The method, boiled down:
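Human PBMC from healthy donors (Ficoll-isolated), 7.5×10^5 cells at 0.75–1×10^6 cells/ml, treated with peptides at 20 or 100 μg/ml for 24 h at 37° C, 5% CO2. MCP-3 in cell-free supernatants measured by capture ELISA.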

The test system of data set [9] is CXCL1 (Gro-α) release by human PBMC. The data set can be described thus: Chemokine induction in PBMC (capture ELISA). As to conditions: background (196) subtracted. It is filed as cell-based. The method, boiled down:
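Human PBMC from healthy donors' heparinised blood (Ficoll), 7.5×10^5 cells treated with 20 or 100 μg/ml peptide for 24 h at 37° C, 5% CO2. Cell-free supernatants assayed for CXCL1 by capture ELISA.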

For data set [10], the system named is ESBL E. coli clinical strain 64771. It is filed as cell-based. As to conditions: ESBL clinical strain 64771. In a few lines:
(§3)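 Broth microdilution in Mueller Hinton medium, peptides serially diluted in 0.01% acetic acid with 0.2% BSA in polypropylene plates. Inoculum 2-7×10^5 CFU/ml, incubated overnight at 37° C. MIC is the lowest concentration with no visible growth.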

Data set [11] concerns ESBL Klebsiella pneumonia clinical strain 63575. Type of data set: cell-based. The method, boiled down: as §3
The subject of data set [12] is VRE Vancomycin resistant Enterococcus faecalis clinical isolates. It is filed as cell-based. In a few lines: as §3
Data set [13] relates to VRE Vancomycin resistant Enterococcus faecium clinical isolates. Type of data set: cell-based. The method, boiled down:
as §3

For data set [14], the system named is multidrug resistant Pseudomonas maltophilia ATCC13637. Type of data set: cell-based. In a few lines: as §3
A further data set in a line: LDH release. Set-up: dose or concentration left out as unconfirmed. Type of data set: cell-based. The protocol: In addition the following peptides were tested for LDH release: 1002, 1005, 1012, 1010, 1013, 1018, 1020, 1026, 1028, 1032, 1033, 1035, and 1037.
In general terms: LDH leaks from cells whose membrane has failed.

Residues, ends and D or L forms follow the SMILES beside them. A value given as a limit tells only on which side of the number the result lay.

Regarding `CC[C@H](C)[C@H](NC(=O)[C@H](CCCNC(=N)N)NC(=O)[C@@H](N)CCCCN)C(=O)N[C@@H](CCSC)C(=O)N[C@@H](CCCCN)C(=O)N[C@@H](CC(C)C)C(=O)N[C@@H](CCCCN)C(=O)N[C@@H](CCSC)C(=O)N[C@@H](CCCNC(=N)N)C(N)=O` [HHC133, KRIMKLKMR] (H-KRIMKLKMR-NH2; N-terminus assumed), the “antimicrobial activity against P. aeruginosa PAO1 (in words)” value in [1] was “did not return any generally active substances”. Further, the MIC (in data set [2]; in [3]; in data set [4]; against ESBL E. cloacae; in [5]; in data set [6]) was over 226 µM each time. Also, the MIC in [10], in data set [11], in data set [12], in data set [13] and in data set [14] was over 226 µM each time. The figures for the “Chemokine induction MCP-1” value in data set [7] (20 μg/ml peptide) and in data set [7] (100 μg/ml peptide) were 195 pg/mL and 444 pg/mL, respectively. Moreover, the “Chemokine induction MCP-3” value amounted to 0 pg/mL in data set [8] (20 μg/ml peptide) and 2 pg/mL in [8] (100 μg/ml peptide). Further, the “Chemokine induction Gro-α” value stood at 15 pg/mL in data set [9] (20 μg/ml peptide) and 81 pg/mL in data set [9] (100 μg/ml peptide).
In the case of `CC[C@H](C)[C@H](NC(=O)[C@H](CCCNC(=N)N)NC(=O)[C@@H](NC(=O)[C@H](C)NC(=O)[C@@H](NC(=O)[C@@H](NC(=O)[C@H](CC(C)C)NC(=O)[C@H](CCCNC(=N)N)NC(=O)[C@@H](N)C(C)C)[C@@H](C)CC)C(C)C)C(C)C)C(=O)N[C@@H](Cc1c[nH]c2ccccc12)C(=O)N[C@@H](CCCNC(=N)N)C(=O)N[C@@H](CCCNC(=N)N)C(N)=O` [compound 1018, VRLIVAVRIWRR] (H-VRLIVAVRIWRR-NH2), the LDH release entry in “LDH release” is given as “None showed any LDH release”.

The values above are taken from US8343475B2, “Small cationic antimicrobial peptides” (priority 2006, dated 2013).
